Test results as given in patent publication US20050137242A1, “Betamimetics having a long-lasting activity, processes for preparing them, and their use as medicaments” (Boehringer Ingelheim Pharma GmbH & Co. KG, priority 2000, published 2005).
Where a name gives a salt, the structure may show the parent alone.

| melting point | Compound |
| --- | --- |
| 189 to 190 °C | CCCCOc1ccc(CC(C)(C)NCC(O)c2ccc(O)c3c2OCC(=O)N3)cc1 (stereo not shown) (as salt: methanesulfonate) [Example 2, 1-[2H-5-hydroxy-3-oxo-4H-1,4-benzoxazin-8-yl]-2-[3-(4-n-butyloxyphenyl)-2-methyl-2-propylamino]ethanol] |
| 175 to 179 °C | COc1ccc(-c2ncn(CCC(C)(C)NCC(O)c3ccc(O)c4c3OCC(=O)N4)n2)cc1 (stereo not shown) (as salt: hydrochloride) [Example 5, 1-[2H-5-hydroxy-3-oxo-4H-1,4-benzoxazin-8-yl]-2-{4-[3-(4-methoxyphenyl)-1,2,4-triazol-3-yl]-2-methyl-2-butylamino}ethanol] |
| 202 to 205 °C | COc1ccc(CC(C)(C)NCC(O)c2ccc(O)c3c2OCC(=O)N3)cc1 (stereo not shown) (as salt: hydrochloride) [Example 4, 1-[2H-5-hydroxy-3-oxo-4H-1,4-benzoxazin-8-yl]-2-[3-(4-methoxyphenyl)-2-methyl-2-propylamino]ethanol] |
| 154 to 155 °C | COc1ccc(CNc2cc(C(O)CNC(C)(C)CCn3cnc4ccccc43)ccc2O)cc1 (stereo not shown) (as salt: acetate) [Example 3, 1-[3-(4-methoxybenzylamino)-4-hydroxyphenyl]-2-[4-(1-benzimidazolyl)-2-methyl-2-butylamino]ethanol] |
